Test results published in patent US20050250677A1, “Glycopeptide antibiotic derivatives” (priority 2002, published 2005).
Read-outs that look alike come from different tables or passages of the source.

Tests used:
CMV = assay: Anti-CMV assay: virus-induced cytopathicity in HEL cell cultures
[1] = tested on: SARS virus (strain Frankfurt-1); assay: microbe, parasite or virus in culture; type: cell-based, human corona (SARS) virus; conditions: SARS virus in Vero cells; read-out: EC50 SARS virus
FCK cells = conditions: read-out: CC50 FCK; FCK cells
HEL cells [2] = conditions: read-out: CC50 (HEL)
Vero cells = conditions: read-out: CC50 Vero
VZV (wild-type strains) = assay: Anti-VZV assay (wild-type strains): virus-induced cytopathicity in HEL cell cultures; type: cell-based, varicella-zoster virus; conditions: HEL cell cultures
HEL cells [3] = tested on: HEL cells
FCV = assay: Feline corona virus assay in Feline Crandel kidney cells (MTS); type: cell-based; conditions: FCV in FCK cells; read-out: EC50 FCV
Protocol: Feline Crandel kidney cells were seeded in 96-well microtiter plates at 24,000 cells/well. Then, 24 hrs later, an appropriate inoculum of FCV is added together with 5-fold dilutions of the test compounds. After 4 days, a MTS/PMS solution was added to each well. Following a 90 min incubation period at 37° C., the optical density of the wells was read at 498 nm in a microplate reader.

HSV-1 (KOS) = assay: Anti-HSV-1 assay: virus-induced cytopathicity in HEL cell cultures; conditions: for EC50: read-out: EC50 HSV-1 (KOS), HEL cell cultures
HSV-2 (G) = assay: Anti-HSV-2 assay: virus-induced cytopathicity in HEL cell cultures; conditions: for EC50: read-out: EC50 HSV-2 (G), HEL cell cultures
[4] = read-out: EC50 CMV AD-169, CMV strain AD-169, HEL cell cultures
[5] = read-out: EC50 CMV Davis, CMV strain Davis, HEL cell cultures
[6] = VZV strain OKA, read-out: EC50 VZV (OKA)
[7] = VZV strain YS, read-out: EC50 VZV (YS)

| Molecule | anti-CMV activity (CMV) | EC50 (CMV; [4]) | EC50 (CMV; [5]) | EC50 [1] | CC50 (FCK cells) | CC50 (HEL cells [2]; HEL cells, anti-CMV table) | CC50 (HEL cells [2]; HEL cells, anti-VZV table) | CC50 (Vero cells) | EC50 (VZV (wild-type strains); [6]) | EC50 (VZV (wild-type strains); [7]) | MTC (HEL) (HEL cells [3]; anti-CMV table) | MTC (HEL) (HEL cells [3]; anti-VZV table) | EC50 (FCV) | activity against HSV-1 (HSV-1 (KOS)) | EC50 (HSV-1 (KOS)) | CC50 (HEL cells [2]; HEL cell proliferation) | activity against HSV-2 (HSV-2 (G)) | EC50 (HSV-2 (G)) | MTC (HEL) (HEL cells [3]) |
| --- | --- | --- | --- | --- | --- | --- | --- | --- | --- | --- | --- | --- | --- | --- | --- | --- | --- | --- | --- |
| CCCCc1ccc(CN2CCN(C(=O)C3NC(=O)C4NC(=O)C(NC(=O)C5NC(=O)C6NC(=O)C(Cc7ccc(c(Cl)c7)Oc7cc5cc(c7O)Oc5ccc(cc5Cl)C4O)NC(=O)C(N)c4ccc(O)c(c4)Oc4cc(O)cc6c4)c4ccc(O)c(c4)-c4c(O)cc(O)cc43)CC2)cc1 (stereo not shown) [Compound 124] | anti-CMV activity | 2.4 µM | 3.2 µM | 15 µM | 17 µM | 71 µM | 71 µM | > 100 µM | 0.34 µM | 0.22 µM | ≧5-100 μM | ≧5-100 μM |  |  |  |  |  |  |  |
| CCCCOc1ccc(CN2CCN(C(=O)C3NC(=O)C4NC(=O)C(NC(=O)C5NC(=O)C6NC(=O)C(Cc7ccc(c(Cl)c7)Oc7cc5cc(c7O)Oc5ccc(cc5Cl)C4O)NC(=O)C(N)c4ccc(O)c(c4)Oc4cc(O)cc6c4)c4ccc(O)c(c4)-c4c(O)cc(O)cc43)CC2)cc1 (stereo not shown) [Compound 125] | anti-CMV activity | 1.9 µM | 2.8 µM | 10 µM | 14 µM | 44 µM | 44 µM | > 100 µM | 0.32 µM | 0.25 µM | ≧2-20 μM | ≧2-20 μM | 1.6 µM |  |  |  |  |  |  |
| CCCCOc1ccc(CNCCOc2c3cc4cc2Oc2ccc(cc2Cl)C(O)C2NC(=O)C(NC(=O)C4NC(=O)C4NC(=O)C(Cc5ccc(c(Cl)c5)O3)NC(=O)C(NCc3ccc(OCCCC)cc3)c3ccc(O)c(c3)Oc3cc(O)cc4c3)c3ccc(O)c(c3)-c3c(O)cc(O)cc3C(C(=O)O)NC2=O)cc1 (stereo not shown) [Compound 132] |  |  |  |  |  |  | 40 µM |  | 0.97 µM |  |  | ≧5-20 μM |  | activity | 9.6 µM | 40 µM | activity | 9.6 µM | ≧5-20 μM |
| CC1(C)SC2C(NC(=O)C3NC(=O)C4NC(=O)C(NC(=O)C5NC(=O)C6NC(=O)C(Cc7ccc(c(Cl)c7)Oc7cc5cc(c7O)Oc5ccc(cc5Cl)C4O)NC(=O)C(N)c4ccc(O)c(c4)Oc4cc(O)cc6c4)c4ccc(O)c(c4)-c4c(O)cc(O)cc43)C(=O)N2C1C(=O)O (stereo not shown) [Compound 145] |  |  |  |  |  |  | > 50 µM |  | 3.9 µM | 2.8 µM |  |  |  |  | 48 µM | > 50 µM |  | 48 µM |  |
| CCCCc1ccc(CNCc2c(O)cc3c(c2O)-c2cc(ccc2O)C2NC(=O)C4NC(=O)C5NC(=O)C(Cc6ccc(c(Cl)c6)Oc6cc4cc(c6O)Oc4ccc(cc4Cl)C(O)C(NC2=O)C(=O)NC3C(=O)O)NC(=O)C(NC(=O)OC(C)(C)C)c2ccc(O)c(c2)Oc2cc(O)cc5c2)cc1 (stereo not shown) [Compound 146] |  | > 20 µM |  |  |  | > 50 µM | > 50 µM |  | 2.5 µM |  | ≧5-50 μM | ≧5-50 μM |  | activity | 9.6 µM | > 50 µM | activity | 9.6 µM | ≧5-50 μM |
| Ristosaminylaglycon of ristomycin [Compound 88] |  |  |  |  |  |  |  |  |  |  |  |  |  |  | 120 µM | > 50 µM |  | > 200 µM |  |
